Laboratory results from paper PMC8839448, “Novel Pyridothienopyrimidine Derivatives: Design, Synthesis and Biological Evaluation as Antimicrobial and Anticancer Agents” (Molecules, 2022).
In brackets after ≈: the same amount, converted by molar mass.

Experiments:
[1] = tested on: Staphylococcus aureus 25923; test: In vitro antibacterial activity, MIC by broth dilution; assay type: cell-based; conditions: Gram +ve bacteria, read-out: MIC S. aureus
[2] = tested on: Candida tropicals 750; test: In vitro antifungal activity, MIC by broth dilution; assay type: cell-based; conditions: yeast, read-out: MIC C. tropicals
[3] = tested on: hepatocellular carcinoma (HepG2) cells; test: Cytotoxicity, MTT assay; assay type: cell-based; conditions: Homo sapiens, read-out: Cytotoxic activity IC50 HepG2
[4] = tested on: Salmonella typhimurium 14028; test: In vitro antibacterial activity, MIC by broth dilution; assay type: cell-based; conditions: Salmonella enterica, Gram −ve bacteria, read-out: MIC S. typhimurium
[5] = tested on: Bacillus subtilis 6633; test: as above; assay type: cell-based; conditions: Gram +ve bacteria, read-out: MIC B. subtilis
[6] = tested on: breast cancer (MCF-7) cells; test: Cytotoxicity, MTT assay; assay type: cell-based, human; conditions: Homo sapiens, MCF7, MCF7 cells, read-out: Cytotoxic activity IC50 MCF7
[7] = tested on: Aspergillus niger EM77 (KF774181); test: In vitro antifungal activity, MIC by broth dilution; assay type: cell-based; conditions: fungi
[8] = tested on: Bacillus cereus 33018; test: In vitro antibacterial activity, MIC by broth dilution; assay type: cell-based; conditions: Gram +ve bacteria, read-out: MIC B. cereus
[9] = tested on: Escherichia coli 8739; test: as above; assay type: cell-based; conditions: Gram −ve bacteria
[10] = tested on: Candida albicans 10231; test: In vitro antifungal activity, MIC by broth dilution; assay type: cell-based; conditions: yeast, read-out: MIC C. albicans
[11] = tested on: Saccharomycese cerevisiae; test: as above; assay type: cell-based; conditions: Saccharomyces cerevisiae, yeast, read-out: MIC S. cerevisiae
[12] = tested on: Aspergillus flavus; test: as above; assay type: cell-based; conditions: fungi
[13] = tested on: five bacterial strains; test: Antibacterial MIC, range over the panel; assay type: cell-based
[14] = tested on: all the tested yeasts and fungi strains; test: Antifungal MIC, range over the panel; assay type: cell-based

SMILES	MIC [1] [µg/mL]	MIC [2] [µg/mL]	IC50 [3] [µM]	MIC [4] [µg/mL]	MIC [5] [µg/mL]	IC50 [6] [µM]	MIC [7] [µg/mL]	MIC [8] [µg/mL]	MIC [9] [µg/mL]	MIC [10] [µg/mL]	MIC [11] [µg/mL]	MIC [12] [µg/mL]	melting point [°C]	MIC range against the tested bacterial strains [13] [µg/mL]	MIC range against the tested yeasts and fungi strains [14] [µg/mL]
Cc1cc(C)c2c(n1)sc1c(=O)[nH]c(=O)[nH]c12 [Compound 2a, 7,9-Dimethylpyrido[3′,2′:4,5]thieno[3,2-d]pyrimidine-2,4(1H,3H)-dione]	> 128	128 (≈ 518 µM)	56.6 ± 3.64	> 128	> 128	64.3 ± 2.91	> 128	64 (≈ 259 µM)	> 128	128 (≈ 518 µM)	16 (≈ 64.7 µM)	> 128	–	–	–
Cc1ccc(-c2cc(-c3ccccc3)nc3sc4c(Cl)nc(Cl)nc4c23)cc1 [Compound 3b, 2,4-Dichloro-7-phenyl-9-(p-tolyl)pyrido[3′,2′:4,5]thieno[3,2-d]pyrimidine]	32 (≈ 75.8 µM)	16 (≈ 37.9 µM)	11.3 ± 0.65	32 (≈ 75.8 µM)	8 (≈ 18.9 µM)	24.7 ± 1.32	16 (≈ 37.9 µM)	32 (≈ 75.8 µM)	16 (≈ 37.9 µM)	32 (≈ 75.8 µM)	64 (≈ 152 µM)	32 (≈ 75.8 µM)	220	–	–
Cc1cc(C)c2c3c(sc2n1)C(SCC(N)=O)=NC1(CCCCC1)N3 [Compound 8a, 2-((7′,9′-Dimethyl-1′H-spiro[cyclohexane-1,2′-pyrido[3′,2′:4,5]thieno[3,2-d]pyrimidin]-4′-yl)sulfanyl)acetamide]	8 (≈ 21.4 µM)	16 (≈ 42.7 µM)	6.78 ± 0.73	32 (≈ 85.4 µM)	16 (≈ 42.7 µM)	20.9 ± 1.46	16 (≈ 42.7 µM)	8 (≈ 21.4 µM)	32 (≈ 85.4 µM)	64 (≈ 171 µM)	16 (≈ 42.7 µM)	16 (≈ 42.7 µM)	160 to 161	8 to 32	–
Cc1ccc(-c2cc(-c3ccccc3)nc3sc4c(=O)[nH]c(CN5CCN(C)CC5)nc4c23)cc1 [Compound 5b, 2-((4-Methylpiperazin-1-yl)methyl)-7-phenyl-9-(p-tolyl)pyrido[3′,2′:4,5]thieno[3,2-d]pyrimidin-4(3H)-one]	8 (≈ 16.6 µM)	16 (≈ 33.2 µM)	10.2 ± 0.29	32 (≈ 66.4 µM)	8 (≈ 16.6 µM)	21.1 ± 1.16	64 (≈ 133 µM)	16 (≈ 33.2 µM)	32 (≈ 66.4 µM)	64 (≈ 133 µM)	16 (≈ 33.2 µM)	32 (≈ 66.4 µM)	260 to 261	–	–
Cc1cc(C)c2c3c(sc2n1)C(=S)NC1(CCCC1)N3 [Compound 7a, 7′,9′-Dimethyl-1′H-spiro[cyclopentane-1,2′-pyrido[3′,2′:4,5]thieno[3,2-d]pyrimidine]-4′(3′H)-thione]	4 (≈ 13.2 µM)	16 (≈ 52.7 µM)	26.1 ± 1.89	16 (≈ 52.7 µM)	> 128	28.1 ± 0.92	16 (≈ 52.7 µM)	8 (≈ 26.4 µM)	8 (≈ 26.4 µM)	16 (≈ 52.7 µM)	8 (≈ 26.4 µM)	16 (≈ 52.7 µM)	–	–	4 to 16
Cc1cc(C)c2c3c(sc2n1)C(SCC1CO1)=NC1(CCCCC1)N3 (centres unmarked) [Compound 9a, 7′,9′-Dimethyl-4′-((oxiran-2-ylmethyl)sulfanyl)-1′H-spiro[cyclohexane-1,2′-pyrido[3′,2′:4,5]thieno[3,2-d]pyrimidine]]	16 (≈ 42.8 µM)	32 (≈ 85.7 µM)	4.88 ± 0.65	16 (≈ 42.8 µM)	32 (≈ 85.7 µM)	23.6 ± 1.24	64 (≈ 171 µM)	8 (≈ 21.4 µM)	32 (≈ 85.7 µM)	16 (≈ 42.8 µM)	32 (≈ 85.7 µM)	16 (≈ 42.8 µM)	155	8 to 32	–
Cc1cc(C)c2c3c(sc2n1)C(=S)NC1(CCCCC1)N3 [Compound 7c, 7′,9′-Dimethyl-1′H-spiro[cyclohexane-1,2′-pyrido[3′,2′:4,5]thieno[3,2-d]pyrimidine]-4′(3′H)-thione]	32 (≈ 101 µM)	8 (≈ 25.2 µM)	10.3 ± 0.31	32 (≈ 101 µM)	32 (≈ 101 µM)	20.9 ± 0.93	16 (≈ 50.4 µM)	8 (≈ 25.2 µM)	32 (≈ 101 µM)	16 (≈ 50.4 µM)	8 (≈ 25.2 µM)	4 (≈ 12.6 µM)	201	–	4 to 16
Cc1ccc(-c2cc(-c3ccccc3)nc3sc4c(c23)NC2(CCCCC2)NC4=S)cc1 [Compound 7d, 7′-Phenyl-9′-(p-tolyl)-1′H-spiro[cyclohexane-1,2′-pyrido[3′,2′:4,5]thieno[3,2-d]pyrimidine]-4′(3′H)-thione]	4 (≈ 8.78 µM)	64 (≈ 140 µM)	23.2 ± 0.35	32 (≈ 70.2 µM)	64 (≈ 140 µM)	26.6 ± 1.62	64 (≈ 140 µM)	64 (≈ 140 µM)	32 (≈ 70.2 µM)	32 (≈ 70.2 µM)	32 (≈ 70.2 µM)	64 (≈ 140 µM)	178 to 179	–	–
Cc1ccc(-c2cc(-c3ccccc3)nc3sc4c(=O)[nH]c(CCl)nc4c23)cc1 [Compound 4b, 2-(Chloromethyl)-7-phenyl-9-(p-tolyl)pyrido[3′,2′:4,5]thieno[3,2-d]pyrimidin-4(3H)-one]	8 (≈ 19.1 µM)	16 (≈ 38.3 µM)	36.5 ± 1.82	128 (≈ 306 µM)	128 (≈ 306 µM)	43.3 ± 2.28	16 (≈ 38.3 µM)	16 (≈ 38.3 µM)	128 (≈ 306 µM)	8 (≈ 19.1 µM)	8 (≈ 19.1 µM)	16 (≈ 38.3 µM)	310	–	4 to 16
Cc1ccc(-c2cc(-c3ccccc3)nc3sc4c(c23)NC2(CCCC2)NC4=S)cc1 [Compound 7b, 7′-Phenyl-9′-(p-tolyl)-1′H-spiro[cyclopentane-1,2′-pyrido[3′,2′:4,5]thieno[3,2-d]pyrimidine]-4′(3′H)-thione]	64 (≈ 145 µM)	64 (≈ 145 µM)	39.7 ± 1.89	128 (≈ 290 µM)	64 (≈ 145 µM)	41.6 ± 2.2	128 (≈ 290 µM)	64 (≈ 145 µM)	64 (≈ 145 µM)	64 (≈ 145 µM)	32 (≈ 72.5 µM)	64 (≈ 145 µM)	–	64 to 128	–
Cc1ccc(-c2cc(-c3ccccc3)nc3sc4c(=O)[nH]c(=O)[nH]c4c23)cc1 [Compound 2b, 7-Phenyl-9-(p-tolyl)pyrido[3′,2′:4,5]thieno[3,2-d]pyrimidine-2,4(1H,3H)-dione]	64 (≈ 166 µM)	32 (≈ 83 µM)	33.2 ± 1.79	64 (≈ 166 µM)	128 (≈ 332 µM)	42.4 ± 2.24	32 (≈ 83 µM)	64 (≈ 166 µM)	128 (≈ 332 µM)	64 (≈ 166 µM)	32 (≈ 83 µM)	32 (≈ 83 µM)	316 to 317	–	–
